Tested on: not listed separately
Experiment: log P determination by HPLC on reversed-phase column (C 18), EEC directive 79/831 Annex V.A8
Format: physicochemical
Conditions: reversed-phase HPLC column (C 18), pH 2.3, pH 2.3 (marked a), 0.1% aqueous phosphoric acid/acetonitrile, 43° C.
Description: The log P values given in the tables and Preparation Examples above are determined in accordance with EEC directive 79/831 Annex V.A8 by HPLC (High Performance Liquid Chromatography) using a reversed-phase column (C 18). Temperature: 43° C. In the acidic range, the determination is carried out at pH 2.3 using the mobile phases 0.1% aqueous phosphoric acid and acetonitrile; linear gradient from 10% acetonitrile to 90% acetonitrile (marked^a) in the table). In the neutral range, the determination is carried out at pH 7.5 using the mobile phases 0.01-molar aqueous phosphate buffer solution and acetonitrile; linear gradient from 10% acetonitrile to 90% acetonitrile (marked^b) in the table). Calibration is carried out using unbranched alkan-2-ones (having 3 to 16 carbon atoms) with known log P values (determination of the log P values by the retention times using linear interpolation between two successive alkanones).

| chromatographic logP | SMILES |
| --- | --- |
| 4.03 | COc1cccc(CNC(=O)[C@H]2CC(c3c(F)cccc3F)=NC2c2ccc(-c3ccc(OC(F)(F)F)cc3)cc2)c1OC (stereo partly drawn) [Example 95] |
| 4.72 | Cc1cc(C)cc(CNC(=O)[C@H]2CC(c3c(F)cccc3F)=NC2c2ccc(-c3ccc(OC(F)(F)F)cc3)cc2)c1 (stereo partly drawn) [Example 96] |
| 4.23 | O=C(NCc1ccc(F)cc1F)[C@H]1CC(c2c(F)cccc2F)=NC1c1ccc(-c2ccc(OC(F)(F)F)cc2)cc1 (stereo partly drawn) [Example 97] |
| 4.41 | Cc1cccc(CNC(=O)[C@H]2CC(c3c(F)cccc3F)=NC2c2ccc(-c3ccc(OC(F)(F)F)cc3)cc2)c1 (stereo partly drawn) [Example 98] |

Tested on: larvae of the mustard beetle (Phaedon cochloeariae)
Experiment: Phaedon larvae test
Format: in vivo
Conditions: 1000 ppm, cabbage leaves (Brassica oleracea) dipped
Description: (§1) Phaedon larvae Test • Solvent: 30 parts by weight of dimethylformamide • Emulsifier: 1 part by weight of alkylaryl polyglycol ether To produce a suitable preparation of active compound, 1 part by weight of active compound is mixed with the stated amounts of solvent and emulsifier, and the concentrate is diluted with emulsifier-containing water to the desired concentration. Cabbage leaves (Brassica oleracea) are treated by being dipped into the preparation of active compound of the desired concentration and are populated with larvae of the mustard beetle (Phaedon cochloeariae) while the leaves are still moist. After the desired period of time, the kill in % is determined. 100% means that all beetle larvae have been killed; 0% means that none of the beetle larvae have been killed.

| SMILES | Kill rate in % after 7 days |
| --- | --- |
| COC(=O)C1CC(c2c(F)cccc2F)=NC1c1ccc(-c2ccc(OC(F)(F)F)cc2)cc1 (stereo not drawn) [drawing 148] | 100% |
| N#CC1CC(c2c(F)cccc2F)=NC1c1ccc(-c2ccc(OC(F)(F)F)cc2)cc1 (stereo not drawn) [drawing 149] | 100% |
| COC(=O)C1CC(c2ccccc2Cl)=NC1c1ccc(-c2ccc(OC(F)(F)F)cc2)cc1 (stereo not drawn) [drawing 150] | 100% |

Tested on: caterpillars of the army worm (Spodoptera frugiperda)
Experiment: Spodoptera frugiperda test
Format: in vivo
Conditions: 1000 ppm, cabbage leaves (Brassica oleracea) dipped
Description: as §1, with “Spodoptera frugiperda” for “Phaedon larvae”, “caterpillars” for “larvae”, “army worm (Spodoptera frugiperda)” for “mustard beetle (Phaedon cochloeariae)”, “caterpillars” for “beetle larvae”

| SMILES | Kill rate in % after 7 days |
| --- | --- |
| N#CC1CC(c2ccccc2Cl)=NC1c1ccc(-c2ccc(OC(F)(F)F)cc2)cc1 (stereo not drawn) | 100% |
| CC(C)c1ccc(-c2ccc(C3N=C(c4ccccc4Cl)CC3C#N)cc2)cc1 (stereo not drawn) | 100% |
| COC(=O)C1CC(c2c(F)cccc2F)=NC1c1ccc(-c2ccc(OC(F)(F)F)cc2)cc1 (stereo not drawn) [drawing 151] | 100% |
| COC(=O)C1CC(c2ccccc2Cl)=NC1c1ccc(-c2ccc(OC(F)(F)F)cc2)cc1 (stereo not drawn) [drawing 152] | 100% |
| N#CC1CC(c2c(F)cccc2F)=NC1c1ccc(-c2ccc(OC(F)(F)F)cc2)cc1 (stereo not drawn) [drawing 154] | 100% |

Tested on: Liriomyza trifolii
Experiment: Liriomyza test
Format: in vivo
Conditions: 1000 ppm, bean plants (Phaseolus vulgaris) dipped
Description: Liriomyza Test • Solvent: 3 parts by weight of dimethylformamide • Emulsifier: 1 part by weight of alkylaryl polyglycol ether To produce a suitable preparation of active compound, 1 part by weight of active compound is mixed with the stated amounts of solvent and emulsifier, and the concentrate is diluted with emulsifier-containing water to the desired concentration. Bean plants (Phaseolus vulgaris) which are infested by eggs and development stages of […] (Liriomyza trifolii) are dipped into a preparation of active compound of the desired concentration. After the desired period of time, the effect in % is determined. 100% means that all […] have been killed; 0% means that none of the […] have been killed.

| SMILES | Kill rate in % after 7 days |
| --- | --- |
| COC(=O)C1CC(c2c(F)cccc2F)=NC1c1ccc(-c2ccc(OC(F)(F)F)cc2)cc1 (stereo not drawn) [drawing 145] | 100% |

Tested on: Meloidogyne icognita
Experiment: Meloidogyne test
Format: in vivo
Conditions: 20 ppm, lettuce in sand, nematicidal action by formation of galls
Description: Meloidogyne Test • Solvent: 30 parts by weight of dimethylformamide • Emulsifier: 1 part by weight of alkylaryl polyglycol ether To produce a suitable preparation of active compound, 1 part by weight of active compound is mixed with the stated amounts of solvent and emulsifier, and the concentrate is diluted with emulsifier-containing water to the desired concentration. Vessels are filled with sand, solution of active compound, Meloidogyne icognita egg/larvae suspension and lettuce seeds. The lettuce seeds germinate and the plants develop. On the roots, galls develop. After the desired period of time, the nematicidal action is determined in % by the formation of galls. 100% means that no galls have been found; 0% means that the number of galls on the treated plants corresponds to that of the untreated control.

| SMILES | Kill rate in % after 14 days |
| --- | --- |
| COC(=O)C1CC(c2c(F)cccc2F)=NC1c1ccc(-c2ccc(OC(F)(F)F)cc2)cc1 (stereo not drawn) [drawing 146] | 100% |
| N#CC1CC(c2c(F)cccc2F)=NC1c1ccc(-c2ccc(OC(F)(F)F)cc2)cc1 (stereo not drawn) [drawing 147] | 90% |

— US6995185B2, “Δ1-pyrrolines used as pesticides” (Bayer Cropscience AG, priority 2000, dated 2006)
